For experiment [1], the system named is R. sphaeroides. The experiment is described as follows: Hydrogen production by R. sphaeroides under photosynthetic condition in the presence of alcohol (GC of gas phase). The format is cell-based, Rhodobacter sphaeroides. The conditions noted are these: for efficiency of hydrogen production: 10 Watts/m^2, 30° C., anaerobic. As for the experimental part:
For the hydrogen production, R. sphaeroides 2.4.1(ATCC BAA-808, Cohen-Bazire et al. 1956. J. Cell. Comp. Physiol. 49: 25-68) or R. sphaeroides KCTC 12085 were used. To grow the cells, basically Sistrom minimal medium [20 mM KH2PO4, 3.8 mM (NH4)2SO4, 34 mM succinate, 0.59 mM L-glutamate, 0.30 mM L-aspartate, 8.5 mM NaCl, 1.05 mM nitrilotriacetic acid, 1.2 mM MgCl26H2O, 0.23 mM CaCl27H2O, 25 µM FeSO47H2O, 0.16 M (NH4)6Mo7O244H2O, 4.7 M EDTA, 38 M ZnSO47H2O, 9.1 M MnSO4H2O, 1.6 M CuSO45H2O, 0.85 M Co(NO3)26H2O (II), 1.8 M H3BO3, 8.1 M Nicotinic acid, 1.5 M Thiamine HCl, 41 nM biotin (Sistrom, W. R, 1962. J. Gen. Microbiol. 28: 607-616)] were used with the following modifications. To optimize the activity of nitrogenase, Ammonium molybdate was replaced with the same amount of Sodium molybdate, or 7 mM of L-glutamate was used instead of ammonium sulfate, or succinate was replaced with 30 mM malate. To investigate the effect of ammonium, 2 mM Ammonium chloride was added.
R. sphaeroides was inoculated at the concentration of 10^8 CFU/ml in 10 ml of Sistrom minimal medium and incubated for 120 hrs. to test the hydrogen production at the following condition: 10 Watts/m^2, 30° C., anaerobic. To measure the hydrogen produced, the cells were incubated in a serum vial which was air tight. Before use the air in the vial was replaced with argon gas to remove oxygen. During the reaction, an aliquot of gas in the gas phase was sampled from the vial using the gas-tight syringe, which was further analyzed by a Gas Chromatography (GC, Shimadzu, Japan).
(§1) Each strain was inoculated to the medium as described above at 10^8 CFU/ml and incubated for 120 hours under the following condition: 10 Watts/m^2 of light, 30° C., and anaerobic condition and the amount of hydrogen produced was tested. The ethanol was added at 0.2 vol % and the cell growth, and hydrogen production and analysis were performed as described in Example 1.
To determine the optimal concentration and time of the alcohol added, the accumulated amount of hydrogen produced was measured in R. sphaeroides in the presence of varying amounts of ethanol from 0.01 vol % to 2 vol % (volume/volume %) by incubating them under the same condition as described in Example 1.
In addition to ethanol, other alcohols, that is, methanol (CH3OH), propanol (CH3CH2CH2OH), isopropanol [(CH3)2CHOH], butanol [CH3(CH2)2CH2OH], isoamyl alcohol, [(CH3)2CHCH2CH2OH] were tested. Under the same condition as used in Example 1, each alcohol was added to the cells at the concentration of 0.1%, 0.2%, 0.5%, or 1.0%.

The next experiment has as its system nitrogenase. How it is done: The activity of nitrogenase was measured by the rate of ethylene (C2H4) produced using the acetylene (C2H2) as a substrate. The nitrogenase has an ability to produce hydrogen and ethylene by reducing proton (H+) and acetylene in addition to using N2 as substrate (Kern et al. 1992. Appl. Microbiol. Biotechnol. 37: 496-500). The activity of the nitrogenase was measured by incubating R. sphaeroides under the photosynthetic condition of 10 Watts/m^2 of light. 10 ml of the bacteria (10^8 CFU/ml) was placed in a serum vial (65 ml) and incubated under the light until the KU (Klett Unit) reached 150 to 200. To prevent the de novo protein synthesis during the incubation period, chloramphenicol was used at 50 μg/ml and the air in the vial was replaced with argon before use. Acetylene was injected into the vial to occupy 10% of the entire air phase using a gas-tight syringe. The cells were first incubated for 10 min without light and the reaction started under the 10 Watts/m^2 light. The amount of ethylene produced was measured by withdrawing an aliquot of the gas in the gas phase using a gas-tight syringe and by subject them to GC analysis.

The subject of experiment [2] is R. sphaeroides. How it is done:
The wild type R. sphaeroides cells were grown under 10 Watts/m^2 of light as described in Example 1 and tested for the production of hydrogen.
The hydrogen produced was analyzed as described in Example 1.

Experiment [3] relates to Rhodobacter capsulatus SB1003. To be noted: R. capsulatus; ethanol 0.2 vol %; modified Sistrom medium depleted with ammonium ion; 120 hours. As for the experimental part: Rhodobacter capsulatus SB1003 and Rhodospirillum rubrum UR1 selected for the experiment due to their well characterization. For the growth of R. capsulatus, a modified Sistrom medium depleted with ammonium ion was used; and for the growth of R. rubrum, MG minimal medium was used as described in Lehman and Roberts. 1991. J. Bacteriol. 173: 5705-5711.
as §1

Setting [4] is: concentration not stated (tested at 0.1%, 0.2%, 0.5%, or 1.0%).

Values joined by “and” are separate entries in the source; they are usually repeats but may differ in a detail not shown here. Equal entries are not always repeated. Where two headings read alike, the source gives them in different places.

In the case of butanol, in the experiment with R. sphaeroides [1], the “concentration with the highest effect on hydrogen production” value (from here on “concentration with the highest effect”) came to 0.2% and the hydrogen production entry is recorded as “increased”.

Regarding `CCO` [ethanol], the growth of cells entry in the experiment on R. sphaeroides [1] (2% ethanol) is listed as “inhibited the growth”. Besides, the hydrogen produced entry with R. sphaeroides [1] (2% ethanol) is listed as “very much decreased”. For the same compound, the “fold increase (hydrogen produced in the presence of alcohol/in the absence of alcohol)” value in the experiment with R. sphaeroides [1] (R. sphaeroides, ethanol 0.2 vol %, 120 hours) is 2.21 fold; in experiment [3], 1.5 fold and 1.53 fold. The growth of bacteria result in the experiment with R. sphaeroides [1] (ethanol 0.1 vol % and 0.5 vol %, Sistrom medium containing ammonium ion) is “not affected”. In addition, in the experiment with R. sphaeroides [1] (ethanol 0.1 vol % or 0.5 vol % vs control without ethanol), the “hydrogen production, times higher than the control” value came to 10 times. The “efficiency of hydrogen production” value with R. sphaeroides [1] (ethanol 0.1 vol %, Sistrom medium containing ammonium ion) amounted to 5.04 mole H2/mole succinate; with R. sphaeroides [1] (ethanol 0.5 vol %, Sistrom medium containing ammonium ion) it was 5.72 mole H2/mole succinate. In addition, the “effect on hydrogen production by time of addition” value with R. sphaeroides [1] (ethanol 0.5 vol % added with inoculation (10 KU) or at 100 KU compared to addition at 300 KU, FIG. 5) was “higher increasing effect on the hydrogen production”. Besides, the “accumulated hydrogen production, wild type strain” value in the experiment with R. sphaeroides [1] (ethanol 0.5 vol %, Sistrom medium containing ammonium ion, FIG. 3) is given as “increased hydrogen production”. Moreover, the hydrogen production entry in the experiment on R. sphaeroides [1] (ethanol less than 0.05%) is given as “not shown to increase”. For the same compound, the “activity of nitrogenase, times higher than the control” value in the experiment on nitrogenase (0.2 vol % ethanol vs control without ethanol) amounted to 4 times. This compound also yielded an activity of nitrogenase in the experiment on nitrogenase (0.2 vol % of EtOH, 10 Watts/m^2 light) of 18.2 nmole KU^−1 h^−1. For the same compound, the “hydrogen gas producing ability remained in 2 mM ammonium ion compared to 0 mM ammonium ion” value with R. sphaeroides [2] (0.2% ethanol, modified medium, FIG. 4) was “not less than 80%”. Besides, in the experiment on R. sphaeroides [2] (after the addition of ethanol), the “nitrogenase activity remained in the presence of ammonium ion” value is recorded as “more than 80%”.

Regarding `CCCO` [propanol], in the experiment with R. sphaeroides [1], the “concentration with the highest effect” value is given as 0.5% and the hydrogen production entry is listed as “increased”.

On to `CC(C)O` [isopropanol], for which, in the experiment with R. sphaeroides [1] (setting [4]), the “increase of hydrogen production” value is “about 35%”.

With `CC(C)CCO` [isoamyl alcohol], the hydrogen production result in the experiment on R. sphaeroides [1] (setting [4]) is on record as “decrease the hydrogen production”.

Regarding `CO` [Methanol, methanol], in the experiment with R. sphaeroides [1] (alcohol at 0.1%, 0.2%, and 0.5%), the hydrogen production result was “increased”. The cell growth entry in the experiment with R. sphaeroides [1] (alcohol at 1.0%) is given as “inhibit the cell growth”. Also, the “concentration with the highest effect” value in the experiment with R. sphaeroides [1] (tested at 0.1%, 0.2%, 0.5%, or 1.0%) stood at 0.2%.

Values taken from patent publication US20130089907A1, “HYDROGEN PRODUCTION METHOD USING ALCOHOL AND PHOTOSYNTHETIC BACTERIA” (priority 2010, published 2013).
